Measurements from US20240239863A1, “GIP RECEPTOR AGONIST AND USE THEREOF” (HANGZHOU ZHONGMEIHUADONG PHARMACEUTICAL CO., LTD., priority 2022, published 2024).
Starred links: 1 amine or outer side, 2 acyl side, 3 side chain; linkers in the order of their positions; H or OH if unused. Non-standard residues stand in square brackets, D forms with d. Residues, ends and D or L forms follow the SMILES beside them. Groups on a side chain read outwards from the residue. *: point of attachment. d(γGlu) = O=C(O)[C@@H](CCC(=O)[*:2])N[*:1]; C18 diacid = O=C(O)CCCCCCCCCCCCCCCCC(=O)*; AEEA = NCCOCCOCC(=O)O; Aib = CC(C)(N)C(=O)O

How the values were obtained:
[1] = Body weight of DIO mice after 28 days of administration (Example 10); type: in vivo, DIO male mice; details: 2 nmol/kg s.c. QD
Procedure: Eight or more C57BL/6J male mice at an age of 16 to 18 weeks and fifty-six or more DIO male mice with obesity induced by high-fat feed at an age of 16 to 18 weeks were selected. After entering the animal facility, all mice were adaptively fed for 3 days or more. They were required to adapt for 3 days before grouping. All mice were measured for body weight, body fat ratio and fasting blood glucose. Fifty-six DIO mice were randomly grouped primarily based on body weight and fasting blood glucose and secondarily based on body fat ratio. 8 C57BL/6J mice of close weekly age were assigned into the healthy control group. Each mouse in all groups was housed in a separate cage for 2-3 days to adapt to environment before grouping. During the period, the mice were adaptively caught and administrated with blank solvent daily. The day of grouping was Day 0, and the administration was continued for 28 days. […]
The body weight of each mouse was recorded every day according to the frequency of administration. Postprandial blood glucose was measured every 3 days, fasting blood glucose was measured every 7 days, and IPGTT (Intraperitoneal Glucose Tolerance Tests) was conducted once before the end point. […]

[2] = Body weight of DIO mice, 25 days, different administration ratios (Example 11); type: in vivo; details: 30 nmol/kg s.c. QD, Day 25
From the text: (§1) […] high-fat diet-induced obese (DIO) mice were weighed. When the average weight of the mice is about 40-45 g, they are randomly assigned to Groups G2-G11 based on the body weight of the mice, with 8 mice in each group. Eight C57BL/6 mice fed with normal diet were assigned to Group G1. Each mouse in all groups was housed in a separate cage for 2-3 days to adapt to environment before grouping. During this period, the mice were adaptively caught and administrated with blank solvent daily. The day of grouping was Day 0. The Vehicle group was administrated with blank solvent (propylene glycol: 14.0 mg/mL and disodium hydrogen phosphate: 1.132 mg/mL) at pH 7.4; s.c. means subcutaneous injection; the frequency of administration QD means once a day. Such expressions may be applied to the following Examples.
(§2) The animals were weighed before grouping (i.e. before the first administration) and every 3 days after grouping. At the end of the experiment (Day 25), the mice were fasted for 4 hours. The livers of all mice in Groups G1-G8 were collected and weighed. About 20 mg of the livers were homogenized. The homogenate was taken to measure total cholesterol (TC) and […] (TG).

[3] = Body weight of DIO mice, high dosage, 21 days (Example 12); type: in vivo; details: 30 nmol/kg s.c. QD
From the text: 72 diet-induced obese (DIO) mice were weighed. (Screening and Grouping) When the average weight of the mice is about 40-45 g, they are randomly assigned to Groups G2-G11 based on the body weights of the mice, with 8 mice in each group. Eight C57BL/6 mice fed with normal diet were assigned to Group G1. Each mouse in all groups was housed in a separate cage for 2-3 days to adapt to environment before grouping. During this period, the mice were adaptively caught and administrated with blank solvent (propylene glycol: 14.0 mg/mL and disodium hydrogen phosphate: 1.132 mg/mL, pH 7.4) daily. The day of grouping was Day 0.

[4] = Liver total cholesterol (TC) and triglyceride (TG) in DIO mice (Example 11); type: in vivo; details: 30 nmol/kg s.c. QD, Day 25, fasted 4 hours
From the text: as §1, §2

[5] = Fasting blood glucose in STZ type 2 diabetic mice after 7 days (Example 9); type: in vivo; details: for Fasting Blood Glucose Value, 0 day: 0 day (baseline)
From the text: Male mice were allowed to adapt to new environment for 1 week before treatment. The mice were divided into several groups (n=6-8/group). The individual was screened and divided into groups based on body weight and fasting blood glucose. Grouping was done by screening in a balanced manner, so as to exclude individuals that were too large or too small. A blank buffer or a test compound was subcutaneously administrated to the animals once a day. The individuals in the body weight group were weighted daily before administration, while the individuals in the fasting blood glucose group (fasting for 4 hours) were measured for their blood glucose 7 days after administration.

[6] = design: species or system DIO mice; details: mouse, in vivo
From the text: as §1
Based on the assay in Example 11, the cumulative water intake of the mice was also statistically calculated and compared with the water intake of the mice in the Tirzepatide treatment group.

[7] = molecular target: human GIP receptor (glucose-dependent insulinotropic peptide receptor, GIPR) (human) (UniProt P48546); assay: cell-based or functional assay
[8] = molecular target: human GLP-1 receptor (human, UniProt P43220 24-463); assay: cell-based or functional assay
[9] = molecular target: hGLP-1R (Homo sapiens, UniProt P43220); assay: Cell agonistic activity at GLP-1 receptor (Example 7); type: cell-based; details: read-out: hGLP-1R EC50
[10] = molecular target: T1, hGIPR (Homo sapiens, UniProt P48546); assay: HTRF cAMP cell agonistic activity assay, HEK293 stably expressing GIPR (Example 7); type: cell-based
T1 construct: expressed in transfected cells; host or cells: HEK293, stably transduced
T1 sequence (P48546 22-466): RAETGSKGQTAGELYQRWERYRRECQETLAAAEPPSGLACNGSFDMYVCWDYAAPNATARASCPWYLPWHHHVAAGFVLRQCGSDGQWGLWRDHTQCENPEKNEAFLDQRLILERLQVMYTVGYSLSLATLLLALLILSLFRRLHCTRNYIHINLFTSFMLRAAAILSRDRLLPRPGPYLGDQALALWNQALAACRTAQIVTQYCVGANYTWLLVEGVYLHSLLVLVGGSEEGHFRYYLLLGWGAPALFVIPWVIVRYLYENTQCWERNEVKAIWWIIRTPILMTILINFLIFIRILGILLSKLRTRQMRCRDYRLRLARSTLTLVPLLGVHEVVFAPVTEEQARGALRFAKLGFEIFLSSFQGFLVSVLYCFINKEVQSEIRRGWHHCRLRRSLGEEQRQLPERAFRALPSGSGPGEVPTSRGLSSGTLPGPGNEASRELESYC
Procedure: The agonistic activity of the compounds on the receptor was determined using the HTRF kit (purchased from Perkin Elmer). All reagents in the kit were allowed to equilibrate to room temperature before use. A 1× Stimulation Buffer was formulated according to the instruction in the kit for use. […] GIPR cells were digested with trypsin, centrifuged to remove the culture medium. The cells were resuspended in the 1× Stimulation Buffer. After being counted, 9 μL cell dilutions were inoculated into a 384-well plate at 1000 cells/well. 1 μL the 10× compound diluted in step 2 was taken and added to the corresponding test well, wherein 1 μL the 10× initial concentration positive compound was added to the PC hole (Min value), and 1 μL the 10×DMSO buffer (1%) was added to the VC hole (Max value). The plate was centrifuged and incubated at 37 °C for 30 minutes. Eu-cAMP was diluted with Detection buffer to a working concentration, and the diluent was added into the corresponding test well at 5 μL/well. ULight-anti-Camp was diluted with Detection buffer to a working concentration, and the diluent was added into the corresponding test well at 5 μL/well. After being centrifuged, the plate was incubated at room temperature for 1 hour. […] The nonlinear regression method of GraphPad Prism software was used for curve fitting and EC50 calculation.

[11] = 2.4 nmol/kg s.c. once a day, 7 days
[12] = 14.4 nmol/kg s.c. once a day, 7 days

Chain of human GLP-1 receptor (P43220 24-463): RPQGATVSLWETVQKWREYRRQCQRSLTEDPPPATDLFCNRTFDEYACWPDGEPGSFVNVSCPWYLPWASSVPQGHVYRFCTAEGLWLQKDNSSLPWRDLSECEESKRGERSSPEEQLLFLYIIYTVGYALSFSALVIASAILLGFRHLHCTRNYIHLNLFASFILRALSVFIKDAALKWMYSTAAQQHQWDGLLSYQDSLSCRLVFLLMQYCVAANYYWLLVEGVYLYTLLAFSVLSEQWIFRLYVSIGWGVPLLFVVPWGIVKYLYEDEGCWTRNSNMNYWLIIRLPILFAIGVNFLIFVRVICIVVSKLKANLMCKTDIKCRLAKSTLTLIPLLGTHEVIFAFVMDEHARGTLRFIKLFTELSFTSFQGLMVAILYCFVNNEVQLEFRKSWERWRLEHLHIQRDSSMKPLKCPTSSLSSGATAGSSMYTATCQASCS
Chain of hGLP-1R (P43220 24-463): as above

Molecule: N^6,26-{18-[N-(17-carboxylheptadecanoyl)-L-γ-glutamyl]-10-oxo-3,6,12,15-tetraoxa-9,18-diazaoctadecanoyl}-[8-(2-amino-2-propionic acid), 34-L-arginine] human glucagon-like peptide 1 (7-37) [GLP-1 Analog]
- Weight [1]: 40.2 ± 1.5 g
- Weight Change [1]: −3.2%
- Body Weight [2]: 31.1 ± 0.7 g
- Body Weight ([2]; listed as GLP-1 Analogs): 31.1 ± 0.7 g
- Body Weight Reduction Percentage at Day 21 [3]: 24.7 ± 1.3 %
- Body Weight ([3]; Day 21): 33.1 ± 0.7 g
- TC [4]: 4.89 ± 0.12 mM
- TG [4]: 0.91 ± 0.03 mM
- Fasting Blood Glucose Value, 0 day ([5]; 2.4 nmol/kg s.c. once a day): 27.17 ± 2.01 mmol/L
- Decrease of Blood Glucose, 7 days [5, 11]: 27.10 ± 13.55%
- Fasting Blood Glucose Value, 7 days [5, 11]: 19.82 ± 3.79 mmol/L
- Fasting Blood Glucose Value, 0 day ([5]; 14.4 nmol/kg s.c. once a day): 26.96 ± 1.60 mmol/L
- Decrease of Blood Glucose, 7 days [5, 12]: 49.30 ± 17.03%
- Fasting Blood Glucose Value, 7 days [5, 12]: 13.66 ± 4.94 mmol/L
- blood glucose values, single drug treatment ([5]; 2.4 and 14.4 nmol/kg, 7 days): decrease in blood glucose values

Molecule: CC[C@H](C)[C@H](NC(=O)[C@H](CC(C)C)NC(=O)[C@H](Cc1c[nH]c2ccccc12)NC(=O)[C@H](CCC(N)=O)NC(=O)[C@@H](NC(=O)[C@H](Cc1ccccc1)NC(=O)[C@H](C)NC(=O)[C@H](CCCCNC(=O)COCCOCCNC(=O)COCCOCCNC(=O)CC[C@H](NC(=O)CCCCCCCCCCCCCCCCCCC(=O)O)C(=O)O)NC(=O)[C@H](CCC(N)=O)NC(=O)[C@H](C)NC(=O)[C@@H](NC(=O)[C@H](CCCCN)NC(=O)[C@H](CC(=O)O)NC(=O)[C@H](CC(C)C)NC(=O)C(C)(C)NC(=O)[C@@H](NC(=O)[C@H](CO)NC(=O)[C@H](Cc1ccc(O)cc1)NC(=O)[C@H](CC(=O)O)NC(=O)[C@H](CO)NC(=O)[C@@H](NC(=O)[C@H](Cc1ccccc1)NC(=O)[C@@H](NC(=O)CNC(=O)[C@H](CCC(=O)O)NC(=O)C(C)(C)NC(=O)[C@@H](N)Cc1ccc(O)cc1)[C@@H](C)O)[C@@H](C)O)[C@@H](C)CC)[C@@H](C)CC)C(C)C)C(=O)N[C@@H](C)C(=O)NCC(=O)NCC(=O)N1CCC[C@H]1C(=O)N[C@@H](CO)C(=O)N[C@@H](CO)C(=O)NCC(=O)N[C@@H](C)C(=O)N1CCC[C@H]1C(=O)N1CCC[C@H]1C(=O)N1CCC[C@H]1C(=O)N[C@@H](CO)C(N)=O [Tirzepatide]
- water intake / adverse responses [6]: significantly inhibited

Molecule: hGLP-1 (7-37) (from UniProt P01275 21-180) (ligand)
- EC50(pM), cell agonistic activity (cAMP, HTRF) [7]: > 100 pM
- EC50(pM), cell agonistic activity [8]: 7.01 pM

Molecule: CC[C@H](C)[C@H](NC(=O)[C@H](CO)NC(=O)[C@H](Cc1ccc(O)cc1)NC(=O)[C@H](CC(=O)O)NC(=O)[C@H](CO)NC(=O)[C@@H](NC(=O)[C@H](Cc1ccccc1)NC(=O)[C@@H](NC(=O)CNC(=O)[C@H](CCC(=O)O)NC(=O)C(C)(C)NC(=O)[C@@H](N)Cc1ccc(O)cc1)[C@@H](C)O)[C@@H](C)CC)C(=O)N[C@@H](C)C(=O)N[C@@H](CC(C)C)C(=O)N[C@@H](CC(=O)O)C(=O)N[C@@H](CCCNC(=N)N)C(=O)N[C@H](C(=O)N[C@@H](Cc1c[nH]cn1)C(=O)N[C@@H](CCC(N)=O)C(=O)N[C@@H](CCC(N)=O)C(=O)N[C@@H](CC(=O)O)C(=O)N[C@@H](Cc1ccccc1)C(=O)N[C@H](C(=O)N[C@@H](CC(N)=O)C(=O)N[C@@H](Cc1c[nH]c2ccccc12)C(=O)N[C@@H](CC(C)C)C(=O)N[C@@H](CC(C)C)C(=O)N[C@@H](C)C(=O)N[C@@H](CCC(N)=O)C(=O)N[C@@H](CCCCNC(=O)COCCOCCNC(=O)COCCOCCNC(=O)CC[C@@H](NC(=O)CCCCCCCCCCCCCCCCC(=O)O)C(=O)O)C(=O)NCC(=O)O)C(C)C)[C@@H](C)CC [Peptide 14, N-{ε-30}-18-{[(23R)-23-carboxyl-2,11,20-trioxo-10,19-diaza-4,7,13,16-tetraoxatricosyl-23-yl]amino}-18-oxooctadecanoic acid acetyl-[Aib2, L14, R16]-hGIP(1-31)] (H-Y[Aib]EGTFISDYSIALDRIHQQDFVNWLLAQK([AEEA-AEEA-d(γGlu)-C18 diacid])G-OH)
- EC50 [9]: > 100 pM
- EC50 [10]: 3.5 pM
